Laboratory results taken from patent publication US8664225B2, “1-[2-(2,4-dimethylphenylsulfanyl)-phenyl] piperazine as a compound with combined serotonin reuptake, 5-HT3 and 5-HT1A activity for the treatment of pain or residual symptoms in depression relating to sleep and cognition” (H. Lundbeck A/S, priority 2007, dated 2014).
Where two headings read alike, the source gives them in different places.

Key:
physchem = conditions: water
[1] = system: extra-cellular levels of ACh; experiment: Extracellular acetylcholine levels in brain of freely moving rats (microdialysis); assay type: in vivo, rat; conditions: 2.5-10 mg/kg s.c.
Procedure: The animals were administered 1-[2-(2,4-dimethylphenylsulfanyl)phenyl]piparazine, HBr salt.
Male Sprague-Dawley rats, initially weighing 275-300 g, were used. The animals were housed under a 12-hr light/dark cycle under controlled conditions for regular in-door temperature (21±2° C.) and humidity (55±5%) with food and tap water available ad libitum.
Rats were anaesthetised with hypnorm/dormicum (2 ml/kg) and intracerebral guide cannulas (CMA/12) were stereotaxically implanted into the brain, aiming at positioning the dialysis probe tip in the ventral hippocampus (co-ordinates: 5.6 mm posterior to bregma, lateral −5.0 mm, 7.0 mm ventral to dura) or in the prefrontal cortex (co-ordinates: 3.2 mm anterior to bregma; lateral, 0.8 mm; 4.0 mm ventral to dura). […] The body temperature of the animals was monitored by rectal probe and maintained at 37° C. […]
The compound dissolved in 10% HPbetaCD and injected subcutaneously (2.5-10 mg/kg). Doses are expressed as mg salt/kg body weight. […]
Concentration of acetylcholine (ACh) in the dialysates was analysed by means of HPLC with electrochemical detection using a mobile phase consisting of 100 mM disodium hydrogenphosphate, 2.0 mM octane sulfonic acid, 0.5 mM tetramethyl-ammonium chloride and 0.005% MB (ESA), pH 8.0. […] The latter was detected electrochemical by using a platinum electrode (Analytical cell: ESA, model 5040). […]

Sprague-Dawley rats = experiment: Contextual fear conditioning in rats; assay type: in vivo, rat; conditions: 1, 5 and 10 mg/kg s.c. 1 h prior to acquisition, any dose tested
Description: The compound administered in the present experiment was 1-[2-(2,4-dimethylphenylsulfanyl)phenyl]piperazine HBr salt.
We have studied the effect of the compound on acquisition, consolidation and recall of contextual fear conditioning in rats. In the fear conditioning paradigm animals learn to associate a neutral environment (context, the training chamber, CS) with an aversive experience (an electrical foot-shock, US). During re-exposure to the training chamber, animals express a freezing behaviour, which is taken as a direct measure of the fear-related memory [Pavlov J. Biol. Sci., 15, 177-182, 1980]. […] Neurosci., 106, 274-285, 1992].
Adult male Sprague-Dawley rats (weighing 250-300 g at time of training) from Charles River Laboratories, housed two per cage under a 12 h light/dark cycle, were used. Food and water were available ad libitum. […]
During the acquisition animals were allowed to freely explore the novel environment for a 1 min habituation period, which co-terminated with one inescapable foot-shock (unconditioned stimulus, US) through the electrifiable grid floor. […] Freezing behaviour was scored during the first 58 s (pre-shock acquisition; experimenter blinded to groups) to determine baseline-freezing responses to the context. […] Freezing behaviour was scored during the whole test period with the experimenter blinded to groups and presented as percent of total test period.

rat = experiment: Chronic constriction nerve injury model; assay type: in vivo; conditions: 7.9 mg/kg s.c., 60 minutes, FIG. 26
Procedure: This model of neuropathic pain involves the application of four loose ligations around one sciatic nerve of the rat over a period of time to develop both hyperalgesia and allodynia. The effect of test compounds in this test is measured as the time to withdraw the paw upon a thermal stimuli.

[2] = Hygroscopicity (water absorption at relative humidity); assay type: physicochemical
Description: Some compounds are hygroscopic, i.e. the absorb water when exposed to humidity. Hygroscopicity is generally regarded as an undesired property for compounds that are to be presented in a pharmaceutical formulation, in particular in a dry formulation, such as tablets. In one embodiment, the invention provides the use of crystals with low hygroscopicity. For oral dosage forms using crystalline active ingredients it is also beneficial if said crystals are well-defined. In the present context, the term “well-defined” in particular means that the stoichiometry is well-defined, i.e. that the ratio between the ions forming the salt is the ratio between small integers, such as 1:1, 1:2, 2:1, 1:1:1, etc. In one embodiment, the compound I forms well-defined crystals.

With `Cc1ccc(Sc2ccccc2N2CCNCC2)c(C)c1.O=C(O)C(O)C(O)C(=O)O` [L-(+)-tartrate, 1-[2-(2,4-Dimethylphenylsulfanyl)-phenyl]piperazine (+)-tartaric acid] the solubility (physchem) was roughly 400 µg/mL.

`Br.Cc1ccc(Sc2ccccc2N2CCNCC2)c(C)c1` [alpha form of the hydrobromide, 1-[2-(2,4-Dimethylphenylsulfanyl)-phenyl]piperazine hydrobromide] gave a solubility (physchem) of 2000 µg/mL.

For `Br.Cc1ccc(Sc2ccccc2N2CCNCC2)c(C)c1` [compound I (HBr salt), 1-[2-(2,4-dimethylphenylsulfanyl)phenyl]piperazine HBr salt], the “extra-cellular levels of ACh in prefrontal cortex” value ([1]; FIG. 19a) was “significantly increased”, the “extra-cellular levels of ACh in ventral hippocampus” value ([1]; FIG. 19b) was “significantly increased” and the “baseline freezing behaviour before the foot shock” value (Sprague-Dawley rats) was “does not affect”. For the same molecule, the “withdrawal latency following a thermal stimuli” value (rat) was “significant and dose-dependant withdrawal latency”.

With `Cc1ccc(Sc2ccccc2N2CCNCC2)c(C)c1` [crystalline base, 1-[2-(2,4-Dimethylphenylsulfanyl)-phenyl]piperazine] the “hygroscopicity (in words)” value [2] was “not hygroscopic”.

With `Cc1ccc(Sc2ccccc2N2CCNCC2)c(C)c1` [fumarate, 1-[2-(2,4-Dimethylphenylsulfanyl)-phenyl]piperazine] the solubility in water (Solubility in water) was 400 µg/mL.

For `Br.Cc1ccc(Sc2ccccc2N2CCNCC2)c(C)c1` [gamma form of the hydrobromide, 1-[2-(2,4-Dimethylphenylsulfanyl)-phenyl]piperazine hydrobromide], the “water absorbed at 30% RH” value ([2]; 30% RH at room temperature) was “about 2%”.

With `Br.Cc1ccc(Sc2ccccc2N2CCNCC2)c(C)c1` [hemi hydrate of the hydrobromide, 1-[2-(2,4-Dimethylphenylsulfanyl)-phenyl]piperazine hydrobromide] the water content ([2]; room temperature and 95% RH) was “about 3.7%”.

For `Cc1ccc(Sc2ccccc2N2CCNCC2)c(C)c1.Cl` [hydrochloride monohydrate, 1-[2-(2,4-Dimethylphenylsulfanyl)-phenyl]piperazine HCl], the “hygroscopicity (in words)” value [2] was “does not absorb further amount of water” and the solubility in water (Solubility in water; HCl) was “about 2 mg/ml”.

`Cc1ccc(Sc2ccccc2N2CCNCC2)c(C)c1.Cl` [hydrochloride, 1-[2-(2,4-Dimethylphenylsulfanyl)-phenyl]piperazine hydrochloride] gave a solubility (physchem) of 3000 µg/mL.

In the case of `Cc1ccc(Sc2ccccc2N2CCNCC2)c(C)c1.O=C(O)/C=C\C(=O)O` [maleate, 1-[2-(2,4-Dimethylphenylsulfanyl)-phenyl]piperazine Maleate], the solubility (physchem) is reported as roughly 1000 µg/mL.

Work on `CS(=O)(=O)O.Cc1ccc(Sc2ccccc2N2CCNCC2)c(C)c1` [mesylate, 1-[2-(2,4-Dimethylphenylsulfanyl)-phenyl]piperazine mesylate] yielded a solubility (physchem) greater than 45000 µg/mL.

Molecule `Cc1ccc(Sc2ccccc2N2CCNCC2)c(C)c1.O=[N+]([O-])O` [nitrate, 1-[2-(2,4-Dimethylphenylsulfanyl)-phenyl]piperazine nitrate] has a solubility (physchem) of roughly 800 µg/mL.

`Cc1ccc(Sc2ccccc2N2CCNCC2)c(C)c1.O=P(O)(O)O` [phosphate, 1-[2-(2,4-Dimethylphenylsulfanyl)-phenyl]piperazine phosphate] gave a solubility (physchem) of roughly 1000 µg/mL.

For `Cc1ccc(Sc2ccccc2N2CCNCC2)c(C)c1.O=S(=O)(O)O` [sulphate, 1-[2-(2,4-Dimethylphenylsulfanyl)-phenyl]piperazine sulphate], the solubility (physchem) was roughly 100 µg/mL.
